Laboratory results published in US20230131402A1, “SPIRO-LACTAM NMDA RECEPTOR MODULATORS AND USES THEREOF” (Aptinyx Inc., priority 2016, published 2023).

Experiments:
NMDAR2A = target: T1, NMDAR2A (Homo sapiens, UniProt Q12879); assay: [3H]MK-801 binding, NMDAR2A expressing HEK cell membranes; format: biochemical; conditions: 50 μM glutamate; for EC50: read-out: NMDAR2A B: log EC50 (converted); for Emax: read-out: NMDAR2A A: % maximal [3H]MK-801 binding relative to 1 mM glycine
T1 construct: expressed in transfected cells; host or cells: HEK cells (membrane extract)
T1 sequence (Q12879 23-1464, species assumed, other chains not shown): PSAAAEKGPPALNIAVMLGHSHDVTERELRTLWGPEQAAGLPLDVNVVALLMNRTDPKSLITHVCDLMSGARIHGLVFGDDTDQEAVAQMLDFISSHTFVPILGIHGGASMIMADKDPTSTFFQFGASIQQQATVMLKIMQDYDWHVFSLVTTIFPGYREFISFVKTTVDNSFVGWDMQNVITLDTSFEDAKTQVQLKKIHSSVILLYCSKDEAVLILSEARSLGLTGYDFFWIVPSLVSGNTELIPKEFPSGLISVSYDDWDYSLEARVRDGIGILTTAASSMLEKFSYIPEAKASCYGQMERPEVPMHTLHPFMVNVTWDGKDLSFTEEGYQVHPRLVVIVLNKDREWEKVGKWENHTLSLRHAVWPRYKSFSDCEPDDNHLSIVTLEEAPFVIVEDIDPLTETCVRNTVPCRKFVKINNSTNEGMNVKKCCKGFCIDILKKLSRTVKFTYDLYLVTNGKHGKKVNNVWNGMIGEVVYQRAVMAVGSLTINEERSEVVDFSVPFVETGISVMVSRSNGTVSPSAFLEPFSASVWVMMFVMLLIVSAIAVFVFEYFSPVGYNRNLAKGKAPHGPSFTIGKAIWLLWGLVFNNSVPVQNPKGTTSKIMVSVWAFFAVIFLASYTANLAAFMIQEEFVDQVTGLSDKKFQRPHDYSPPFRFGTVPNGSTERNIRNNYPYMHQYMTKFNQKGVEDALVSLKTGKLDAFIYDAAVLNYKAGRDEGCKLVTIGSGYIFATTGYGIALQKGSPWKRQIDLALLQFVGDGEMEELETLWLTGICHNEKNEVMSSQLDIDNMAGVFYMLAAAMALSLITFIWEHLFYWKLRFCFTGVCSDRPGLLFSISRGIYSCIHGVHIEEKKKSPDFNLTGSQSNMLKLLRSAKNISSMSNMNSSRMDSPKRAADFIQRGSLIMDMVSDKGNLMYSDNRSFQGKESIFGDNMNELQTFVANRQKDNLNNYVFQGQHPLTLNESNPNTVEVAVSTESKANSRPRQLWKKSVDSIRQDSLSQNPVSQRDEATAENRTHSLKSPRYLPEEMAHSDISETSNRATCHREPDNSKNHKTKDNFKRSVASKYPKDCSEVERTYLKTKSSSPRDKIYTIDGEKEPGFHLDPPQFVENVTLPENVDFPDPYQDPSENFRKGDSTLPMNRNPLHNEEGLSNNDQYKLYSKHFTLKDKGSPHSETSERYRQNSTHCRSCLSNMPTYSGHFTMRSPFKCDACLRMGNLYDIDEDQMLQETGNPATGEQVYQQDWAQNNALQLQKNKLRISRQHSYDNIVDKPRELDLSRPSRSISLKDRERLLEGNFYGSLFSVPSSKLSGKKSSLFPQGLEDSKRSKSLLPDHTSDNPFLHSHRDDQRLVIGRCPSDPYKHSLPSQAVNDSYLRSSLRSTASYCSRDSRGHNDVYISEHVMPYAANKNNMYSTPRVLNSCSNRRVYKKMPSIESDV
Experimental: (§1) Assays were conducted as described by Moskal et al., “GLYX-13: a monoclonal antibody-derived peptide that acts as an N-methyl-D-aspartate receptor modulator,” Neuropharmacology, 49, 1077-87, 2005. These studies were designed to determine if the test compounds act to facilitate NMDAR activation in NMDAR2A, NMDAR2B, NMDAR2C or NMDAR2D expressing HEK cell membranes as measured by increases in [^3H]MK-801 binding.
(§2) In the assay, 300 μg of NMDAR expressing HEK cell membrane extract protein was preincubated for 15 minutes at 25° C. in the presence of saturating concentrations of glutamate (50 μM) and varying concentrations of test compound (1×10^−15M−1×10^−7M), or 1 mM glycine. Following the addition of 0.3 μCi of [^3H]MK-801 (22.5 Ci/mmol), reactions were again incubated for 15 minutes at 25° C. (nonequilibrium conditions). Bound and free [^3H]MK-801 were separated via rapid filtration using a Brandel apparatus.
(§3) In analyzing the data, the DPM (disintegrations per minute) of [^3H]MK-801 remaining on the filter were measured for each concentration of test compound or for 1 mM glycine. The DPM values for each concentration of a ligand (N=2) were averaged. The baseline value was determined from the best fit curve of the DPM values modeled using the GraphPad program and the log(agonist) vs. response(three parameters) algorithm was then subtracted from all points in the dataset. The % maximal [^3H]MK-801 binding was then calculated relative to that of 1 mM glycine: all baseline subtracted DPM values were divided by the average value for 1 mM glycine. The EC50 and % maximal activity were then obtained from the best fit curve of the % maximal [^3H]MK-801 binding data modelled using the GraphPad program and the log(agonist) vs. response(three parameters) algorithm.
(§4) The tables below summarize the results for the wild type NMDAR agonists NMDAR2A, NMDAR2B, NMDAR2C, and NMDAR2D, and whether the compound is not an agonist (−), is an agonist (+), or is a strong agonist (++), where column A is based on the % maximal [^3H]MK-801 binding relative to 1 mM glycine (−=0; <100%=+; and >100%=++); and column B is based on log EC50 values (0=−; ≥1×10^−9M (e.g., −8)=+; and <1×10^−9M (e.g., −10)=++).

NMDAR2B = target: T2, NMDAR2B (Homo sapiens, UniProt Q13224); assay: [3H]MK-801 binding, NMDAR2B expressing HEK cell membranes; format: biochemical; conditions: 50 μM glutamate; for EC50: read-out: NMDAR2B B: log EC50 (converted); for Emax: read-out: NMDAR2B A: % maximal [3H]MK-801 binding relative to 1 mM glycine
T2 construct: expressed in transfected cells; host or cells: HEK cells (membrane extract)
T2 sequence (Q13224 27-1484, species assumed, other chains not shown): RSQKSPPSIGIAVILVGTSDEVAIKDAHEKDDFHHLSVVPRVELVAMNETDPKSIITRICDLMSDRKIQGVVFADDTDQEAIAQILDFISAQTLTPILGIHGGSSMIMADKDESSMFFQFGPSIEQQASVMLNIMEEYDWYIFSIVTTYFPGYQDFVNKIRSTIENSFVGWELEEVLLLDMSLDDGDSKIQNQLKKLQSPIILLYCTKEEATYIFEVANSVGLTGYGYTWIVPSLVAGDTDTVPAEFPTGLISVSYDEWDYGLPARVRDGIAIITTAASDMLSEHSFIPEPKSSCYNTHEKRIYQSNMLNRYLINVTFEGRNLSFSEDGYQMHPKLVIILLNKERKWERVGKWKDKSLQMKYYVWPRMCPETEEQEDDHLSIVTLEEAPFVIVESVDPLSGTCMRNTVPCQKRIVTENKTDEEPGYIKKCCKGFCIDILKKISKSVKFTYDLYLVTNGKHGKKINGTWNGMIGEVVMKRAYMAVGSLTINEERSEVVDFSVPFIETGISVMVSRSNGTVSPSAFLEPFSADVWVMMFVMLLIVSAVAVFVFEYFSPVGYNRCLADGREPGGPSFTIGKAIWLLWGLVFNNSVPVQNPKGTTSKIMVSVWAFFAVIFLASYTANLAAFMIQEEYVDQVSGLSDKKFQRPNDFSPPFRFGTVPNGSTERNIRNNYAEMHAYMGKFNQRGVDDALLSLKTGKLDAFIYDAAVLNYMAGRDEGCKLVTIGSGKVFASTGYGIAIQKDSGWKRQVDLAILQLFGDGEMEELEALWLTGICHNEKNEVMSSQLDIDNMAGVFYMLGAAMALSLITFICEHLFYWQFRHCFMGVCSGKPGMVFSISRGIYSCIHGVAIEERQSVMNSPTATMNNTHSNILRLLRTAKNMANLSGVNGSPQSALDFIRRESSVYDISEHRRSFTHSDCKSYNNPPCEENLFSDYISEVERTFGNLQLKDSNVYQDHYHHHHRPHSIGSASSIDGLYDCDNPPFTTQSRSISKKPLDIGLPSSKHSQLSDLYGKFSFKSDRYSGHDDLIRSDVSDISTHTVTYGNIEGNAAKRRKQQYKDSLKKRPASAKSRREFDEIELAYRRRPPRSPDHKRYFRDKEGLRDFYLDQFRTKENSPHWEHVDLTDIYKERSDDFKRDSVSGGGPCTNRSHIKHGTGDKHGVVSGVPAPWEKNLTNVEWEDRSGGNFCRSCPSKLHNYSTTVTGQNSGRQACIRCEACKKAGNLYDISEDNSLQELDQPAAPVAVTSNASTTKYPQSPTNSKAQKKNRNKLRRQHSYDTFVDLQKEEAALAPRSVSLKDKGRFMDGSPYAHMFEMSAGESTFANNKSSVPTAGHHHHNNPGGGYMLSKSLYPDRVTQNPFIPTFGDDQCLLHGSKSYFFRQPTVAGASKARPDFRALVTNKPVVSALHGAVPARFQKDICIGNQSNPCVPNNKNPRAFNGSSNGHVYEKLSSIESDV
Experimental: as §1, §2, §3, §4

NMDAR2D [1] = target: T3, NMDAR2D (Homo sapiens, UniProt O15399+Q05586); assay: [3H]MK-801 binding, NMDAR2D expressing HEK cell membranes; format: biochemical; conditions: 50 μM glutamate; for Emax: read-out: NMDAR2D A: % maximal [3H]MK-801 binding relative to 1 mM glycine; for EC50: read-out: NMDAR2D B: log EC50 (converted)
T3 construct: expressed in transfected cells; host or cells: HEK cells (membrane extract)
T3 sequence (O15399 28-1336, species assumed, other chains not shown): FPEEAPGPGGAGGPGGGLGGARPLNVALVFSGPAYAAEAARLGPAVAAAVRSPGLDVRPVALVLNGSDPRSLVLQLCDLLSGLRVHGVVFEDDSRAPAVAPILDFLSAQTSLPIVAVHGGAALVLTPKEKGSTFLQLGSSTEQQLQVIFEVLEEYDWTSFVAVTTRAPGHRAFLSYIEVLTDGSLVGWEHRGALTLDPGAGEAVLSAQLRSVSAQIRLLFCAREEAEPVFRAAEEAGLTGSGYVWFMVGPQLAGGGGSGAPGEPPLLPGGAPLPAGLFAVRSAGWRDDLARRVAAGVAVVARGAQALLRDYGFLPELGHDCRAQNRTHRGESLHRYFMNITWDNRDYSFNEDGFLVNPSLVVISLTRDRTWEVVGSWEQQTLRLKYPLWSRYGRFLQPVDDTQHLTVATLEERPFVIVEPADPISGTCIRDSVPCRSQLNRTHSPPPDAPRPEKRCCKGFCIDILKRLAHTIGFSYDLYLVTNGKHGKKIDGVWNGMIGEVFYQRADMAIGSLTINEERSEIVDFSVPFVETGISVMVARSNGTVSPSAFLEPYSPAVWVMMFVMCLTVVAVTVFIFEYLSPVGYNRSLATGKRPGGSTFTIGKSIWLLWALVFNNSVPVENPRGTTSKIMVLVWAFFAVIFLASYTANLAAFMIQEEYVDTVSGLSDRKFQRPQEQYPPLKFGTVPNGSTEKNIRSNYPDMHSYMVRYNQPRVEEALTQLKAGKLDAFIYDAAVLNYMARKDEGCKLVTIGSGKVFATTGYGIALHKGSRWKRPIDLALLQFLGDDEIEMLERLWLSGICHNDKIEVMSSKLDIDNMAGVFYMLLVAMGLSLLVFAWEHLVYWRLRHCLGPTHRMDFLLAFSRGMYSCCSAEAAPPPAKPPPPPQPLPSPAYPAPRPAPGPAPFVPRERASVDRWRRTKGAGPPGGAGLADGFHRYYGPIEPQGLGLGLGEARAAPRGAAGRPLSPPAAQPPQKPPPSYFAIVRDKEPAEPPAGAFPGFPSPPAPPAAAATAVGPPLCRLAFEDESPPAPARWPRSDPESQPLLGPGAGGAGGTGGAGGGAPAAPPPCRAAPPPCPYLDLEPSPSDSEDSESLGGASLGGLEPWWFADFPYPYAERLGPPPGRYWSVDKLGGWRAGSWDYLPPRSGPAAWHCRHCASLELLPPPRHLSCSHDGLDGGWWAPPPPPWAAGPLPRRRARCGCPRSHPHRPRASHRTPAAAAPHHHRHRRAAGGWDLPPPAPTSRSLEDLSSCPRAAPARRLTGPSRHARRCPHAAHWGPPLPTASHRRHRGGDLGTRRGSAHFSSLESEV
Experimental: as §1, §2, §3, §4

NMDAR2C = target: T4, NMDAR2C (Homo sapiens, UniProt Q14957); assay: [3H]MK-801 binding, NMDAR2C expressing HEK cell membranes; format: biochemical; conditions: 50 μM glutamate; for EC50: read-out: NMDAR2C B: log EC50 (converted)
T4 construct: expressed in transfected cells; host or cells: HEK cells (membrane extract)
Experimental: as §1, §2, §3, §4

NMDAR2D [2] = target: T5, NMDAR2D (Homo sapiens, UniProt O15399); assay: [3H]MK-801 binding, NMDAR2D expressing HEK cell membranes; format: biochemical; conditions: 50 μM glutamate
T5 construct: expressed in transfected cells; host or cells: HEK cells (membrane extract)
T5 sequence (O15399 28-1336, species assumed, other chains not shown): as above
Experimental: as §1, §2, §3, §4

IV pharmacokinetics = format: in vivo, Sprague Dawley rats; conditions: Sprague Dawley, rat, in vivo, iv, 2 mg/kg, normal saline (compounds marked * in 1% NMP and 99% normal saline); for C0: read-out: C0; for Vd: read-out: Vss
Text: The table below summarizes the results of the IV pharmacokinetics.

[3] = Oral pharmacokinetics (plasma, brain, CSF); conditions: rat, 10 mg/kg, per os; for bioavailability: % F; for AUC(0-t): AUClast
Experimental: Plasma, brain, and CSF samples were analyzed at various time points over a 24 hour period.

[4] = test system: rats' response (reduced floating time); assay: Porsolt forced swim test; format: in vivo, Sprague Dawley rats
Experimental: A non-clinical in vivo pharmacology study (Porsolt assay) was performed to measure antidepressant-like effects. A negative control (0.5% sodium carboxymethyl cellulose in 0.9% sterile saline vehicle) and a positive control (fluoxetine) are shown for comparison against test compound. The study allowed for the evaluation of the effects of each compound on the Porsolt forced swim test as assessed by the rats' response (reduced floating time) during a 5-minute swimming test.
Male 2-3 month old Sprague Dawley rats were used (Harlan, Indianapolis, Ind.). Rats were housed in Lucite cages with aspen wood chip bedding, maintained on a 12:12 light:dark cycle (lights on at 5 AM), and given ad libitum access to Purina lab chow (USA) and tap water throughout the study.
The Porsolt forced swim test adapted for use in rats was performed as described by Burgdorf et al., (The long-lasting antidepressant effects of rapastinel (GLYX-13) are associated with a metaplasticity process in the medial prefrontal cortex and hippocampus. Neuroscience 308:202-211, 2015). Animals were placed in a 46 cm tall×20 cm in diameter clear glass tube filled to 30 cm with tap water (23±1° C.) for 15 min on the first day (habituation) and 5 min on the subsequent test day. Positive control fluoxetine was dosed 3 times (24 h, 5 h and 1 h) prior to testing. Animals were tested 1 h post-dosing with the test compounds or vehicle. Animals received a 15 min habituation session 1 day before the 5 min test. A subset of compounds tested at 1 h post-dosing were retested at 1 wk post-dosing in the same sets of animals. Water was changed after every other animal. Animals were videotaped, and floating time as defined as the minimal amount of effort required to keep the animals head above water was scored offline by a blinded experimenter with high inter-rater reliability (Pearson's r>0.9).
Each compound tested at dose level shown. Significance vs. vehicle group for each experiment is marked. […] A compound marked “No” was not statistically significant from vehicle. Data was averaged for test compound and vehicle groups (N approximately 8 per group) and the percent reduction in floating for group treated with test compound relative to group treated with vehicle is shown.

[5] = Sprague Dawley, plasma, po, normal saline (compounds marked * in 1% NMP and 99% normal saline)
[6] = normal saline (compounds marked * in 1% NMP and 99% normal saline)
[7] = Sprague Dawley, plasma, po, Tmax, normal saline (compounds marked * in 1% NMP and 99% normal saline)
[8] = 1 h post-dose, 0.1 mg/kg; Yes = p<=0.05 from vehicle

Structure (SMILES)	NMDAR2A A: % maximal [3H]MK-801 binding relative to 1 mM glycine (NMDAR2A)	EC50 (NMDAR2A) [nM]	NMDAR2B A: % maximal [3H]MK-801 binding relative to 1 mM glycine (NMDAR2B)	EC50 (NMDAR2B) [nM]	Emax (NMDAR2D [1]) [%]	Emax (NMDAR2A) [%]	EC50 (NMDAR2D [1]) [nM]	NMDAR2C A: % maximal [3H]MK-801 binding relative to 1 mM glycine (NMDAR2C)	EC50 (NMDAR2C) [nM]	Emax (NMDAR2B) [%]	AUC(0-t) (IV pharmacokinetics) [ng·h/mL]	clearance (IV pharmacokinetics) [mL/min/kg]	half-life (IV pharmacokinetics) [min]	C0 (IV pharmacokinetics) [ng/mL]	Vd (IV pharmacokinetics) [L/kg]	Cmax [3, 5] [ng/mL]	bioavailability ([3]; Sprague Dawley, plasma, po) [%]	AUC(0-t) [3, 5] [ng·h/mL]	Tmax [3, 7] [min]	CSF Cmax [3] [ng/mL]	other results
O=C1NCC12CN(Cc1ccccc1)CCN2Cc1ccccc1 (single isomer, unassigned) [EA-1, 5,8-Dibenzyl-2,5,8-Triazaspiro[3.5]Nonan-1-One]	+ (<100%=+)	< 1	+ (<100%=+)	< 1	0																
CC(C)(C)OC(=O)N1CCNC2(CNC2=O)C1 (single isomer, unassigned) [EB-1, Tort-Butyl 1-Oxo-2,5,8-Triazaspiro[3.5]Nonane-8-Carboxylate]		< 1	− (−=0)		< 100	< 100	< 1	+ (<100%=+)	> 1												
CC(C)(C)OC(=O)N1CCNC2(CNC2=O)C1 (single isomer, unassigned) [EB-2, Tort-Butyl 1-Oxo-2,5,8-Triazaspiro[3.5]Nonane-8-Carboxylate]	+ (<100%=+)	< 1	+ (<100%=+)	> 1				+ (<100%=+)	< 1												NMDAR2D A: % maximal [3H]MK-801 binding relative to 1 mM glycine (NMDAR2D [2]): + (<100%=+); EC50 (NMDAR2D [2]; read-out: NMDAR2D B: log EC50 (converted)): < 1 nM
C[C@@H](O)[C@H](N)C(=O)N1CCN(C(=O)OC(C)(C)C)CC12CNC2=O (single isomer, unassigned) [EC-1, Tert-Butyl 5-(L-Threonyl)-1-Oxo-2,5,8-Triazaspiro[3.5]Nonane Carboxylate]		< 1			< 100	< 100	< 1			0											
O=C1NCC12CNCCN2Cc1ccccc1 (single isomer, unassigned) [ED-1, 5-Benzyl-2,5,8-Triazaspiro[3.5]Nonan-1-One]			− (−=0)		< 100	0	< 1				1020	32.1	47.4	1180	1.88	2800					% F [3]: 138%; AUClast [3, 6]: 7053.49 ng·h/mL; Tmax [3, 6]: 40.2 min

Second part, led by results:

NMDAR2A A: % maximal [3H]MK-801 binding relative to 1 mM glycine (NMDAR2A)	EC50 (NMDAR2A) [nM]	NMDAR2B A: % maximal [3H]MK-801 binding relative to 1 mM glycine (NMDAR2B)	EC50 (NMDAR2B) [nM]	Emax (NMDAR2D [1]) [%]	Emax (NMDAR2A) [%]	EC50 (NMDAR2D [1]) [nM]	NMDAR2C A: % maximal [3H]MK-801 binding relative to 1 mM glycine (NMDAR2C)	EC50 (NMDAR2C) [nM]	Emax (NMDAR2B) [%]	AUC(0-t) (IV pharmacokinetics) [ng·h/mL]	clearance (IV pharmacokinetics) [mL/min/kg]	half-life (IV pharmacokinetics) [min]	C0 (IV pharmacokinetics) [ng/mL]	Vd (IV pharmacokinetics) [L/kg]	Cmax [3, 5] [ng/mL]	bioavailability ([3]; Sprague Dawley, plasma, po) [%]	AUC(0-t) [3, 5] [ng·h/mL]	Tmax [3, 7] [min]	CSF Cmax [3] [ng/mL]	Structure (SMILES)	other results
			< 1	0	0		− (−=0)		< 100											CC(C)(C)OC(=O)N1CCN(C(=O)OC(C)(C)C)C2(CNC2=O)C1 (single isomer, unassigned) [EE-1, Di-Tert-Butyl 1-Oxo-2,5,8-Triazaspiro[3.5]Nonane-5,8-Dicarboxylate]	
+ (<100%=+)	< 1	− (−=0)		< 100		< 1				2260	15	48	6460	0.4	1620	51	5740	100	7	C[C@@H](O)[C@H](N)C(=O)N1CCNC2(CNC2=O)C1 (single isomer, unassigned) [EK-1, 8-(L-Threonyl)-2,5,8-Triazaspiro[3.5]Nonan-1-One]	Brain Cmax [3]: 0 ng/mL
			< 1	0			+ (<100%=+)	< 1												C[C@@H](O)[C@H](N)C(=O)N1CCN(Cc2ccccc2)C2(CNC2=O)C1 (single isomer, unassigned) [EL-2, 8-(L-Threonyl)-5-Benzyl-2,5,8-Triazaspiro[3.5]Nonan-1-One]	
			< 1	< 100	0	< 1	− (−=0)		< 100	593	57.2	31.2	1670	1.44	1540	69	2050	30	232	CN1CCN(C(=O)OC(C)(C)C)CC12CN(CC(N)=O)C2=O (centres unmarked) [ER-117]	Brain Cmax [3]: 121 ng/mL; % reduction in float time ([4]; 1 h post-dose, 0.1 mg/kg, relative to vehicle group): 55.0%; Significance vs. vehicle [4, 8]: Yes
+ (<100%=+)	< 1	+ (<100%=+)	< 1							4770	6.84	820	13700	0.73	2690	44	9820	60	143	C[C@@H](O)[C@H](N)C(=O)N1CCNC2(CCNC2=O)C1 (some centres unmarked) [ES-336]	Brain Cmax [3]: 32 ng/mL; % reduction in float time ([4]; 1 wk post-dose, 0.1 mg/kg, relative to vehicle group; 0.1 mg/kg): 86.5%; Significance vs. vehicle ([4]; 1 wk post-dose, 0.1 mg/kg; Yes = p<=0.05 from vehicle): Yes; % reduction in float time ([4]; 1 h post-dose, 0.1 mg/kg, relative to vehicle group; 0.1 mg/kg): 81.6%; Significance vs. vehicle [4, 8]: Yes
